Test results reported in ChEMBL document CHEMBL5154670, “Discovery of selective irreversible inhibitors of B-Lymphoid tyrosine kinase (BLK)” (Eur J Med Chem, 2022).
Active and inactive are the calls of the source. The rule behind the calls is not given here.

Legend:
[1] = target: T1, Tyrosine-protein kinase BTK (Homo sapiens, UniProt Q06187); assay: Inhibition of wild type N-terminal GST tagged BTK (unknown origin) (2 to 659 residues) expressed in sf21 insect cell using TK as substrate incubated for 50 mins in presence of ATP by HTRF assay
T1 sequence (Q06187 whole entry, the tested form may be a part): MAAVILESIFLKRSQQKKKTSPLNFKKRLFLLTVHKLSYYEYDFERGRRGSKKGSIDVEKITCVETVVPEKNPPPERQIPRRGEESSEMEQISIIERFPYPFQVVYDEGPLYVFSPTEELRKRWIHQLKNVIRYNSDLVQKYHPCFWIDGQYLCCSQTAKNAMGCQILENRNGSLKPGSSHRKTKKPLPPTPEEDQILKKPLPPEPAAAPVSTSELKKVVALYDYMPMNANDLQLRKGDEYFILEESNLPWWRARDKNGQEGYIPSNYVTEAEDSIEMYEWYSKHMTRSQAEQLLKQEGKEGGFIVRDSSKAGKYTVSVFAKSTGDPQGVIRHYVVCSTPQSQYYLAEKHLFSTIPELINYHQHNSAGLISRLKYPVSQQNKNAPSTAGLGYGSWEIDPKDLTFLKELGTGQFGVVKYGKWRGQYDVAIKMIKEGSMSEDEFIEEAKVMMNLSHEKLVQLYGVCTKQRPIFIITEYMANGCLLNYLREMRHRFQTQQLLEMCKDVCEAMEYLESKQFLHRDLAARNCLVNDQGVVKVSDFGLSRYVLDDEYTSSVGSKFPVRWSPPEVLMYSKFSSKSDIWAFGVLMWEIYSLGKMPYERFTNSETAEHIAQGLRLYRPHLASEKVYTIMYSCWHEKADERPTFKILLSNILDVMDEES

[2] = target: Tyrosine-protein kinase TXK (Homo sapiens) (UniProt P42681); assay: Inhibition of TXK (unknown origin) at 0.3 uM relative to control
[3] = Antiproliferative activity against human PBMC cells assessed as cell growth inhibition incubated for 72 hrs by celltiter-glo luminescent cell viability assay; assay type: toxicity, cell-based
Pfeiffer = assay: Antiproliferative activity against human Pfeiffer cells assessed as cell growth inhibition incubated for 72 hrs by celltiter-glo luminescent cell viability assay; assay type: functional
A-431 = assay: Antiproliferative activity against human A-431 cells assessed as cell growth inhibition incubated for 72 hrs by celltiter-glo luminescent cell viability assay; assay type: functional
[4] = target: Cytoplasmic tyrosine-protein kinase BMX (Homo sapiens) (UniProt P51813); assay: Inhibition of BMX (unknown origin) at 0.3 uM relative to control
MOLT-4 = assay: Antiproliferative activity against human MOLT-4 cells assessed as cell growth inhibition incubated for 72 hrs by celltiter-glo luminescent cell viability assay; assay type: functional
DOHH-2 [5] = assay: Downregulation of CDK2 expression in human DOHH-2 cells at 0.1 to 0.3 uM incubated for 24 hrs by Western blot analysis; assay type: functional, cell-based; settings: dose 0.1-0.3 µM
[6] = target: Receptor tyrosine-protein kinase erbB-4 (Homo sapiens) (UniProt Q15303); assay: Inhibition of HER4 (unknown origin) at 0.3 uM relative to control
Chain of Receptor tyrosine-protein kinase erbB-4 (Homo sapiens) (Q15303 whole entry): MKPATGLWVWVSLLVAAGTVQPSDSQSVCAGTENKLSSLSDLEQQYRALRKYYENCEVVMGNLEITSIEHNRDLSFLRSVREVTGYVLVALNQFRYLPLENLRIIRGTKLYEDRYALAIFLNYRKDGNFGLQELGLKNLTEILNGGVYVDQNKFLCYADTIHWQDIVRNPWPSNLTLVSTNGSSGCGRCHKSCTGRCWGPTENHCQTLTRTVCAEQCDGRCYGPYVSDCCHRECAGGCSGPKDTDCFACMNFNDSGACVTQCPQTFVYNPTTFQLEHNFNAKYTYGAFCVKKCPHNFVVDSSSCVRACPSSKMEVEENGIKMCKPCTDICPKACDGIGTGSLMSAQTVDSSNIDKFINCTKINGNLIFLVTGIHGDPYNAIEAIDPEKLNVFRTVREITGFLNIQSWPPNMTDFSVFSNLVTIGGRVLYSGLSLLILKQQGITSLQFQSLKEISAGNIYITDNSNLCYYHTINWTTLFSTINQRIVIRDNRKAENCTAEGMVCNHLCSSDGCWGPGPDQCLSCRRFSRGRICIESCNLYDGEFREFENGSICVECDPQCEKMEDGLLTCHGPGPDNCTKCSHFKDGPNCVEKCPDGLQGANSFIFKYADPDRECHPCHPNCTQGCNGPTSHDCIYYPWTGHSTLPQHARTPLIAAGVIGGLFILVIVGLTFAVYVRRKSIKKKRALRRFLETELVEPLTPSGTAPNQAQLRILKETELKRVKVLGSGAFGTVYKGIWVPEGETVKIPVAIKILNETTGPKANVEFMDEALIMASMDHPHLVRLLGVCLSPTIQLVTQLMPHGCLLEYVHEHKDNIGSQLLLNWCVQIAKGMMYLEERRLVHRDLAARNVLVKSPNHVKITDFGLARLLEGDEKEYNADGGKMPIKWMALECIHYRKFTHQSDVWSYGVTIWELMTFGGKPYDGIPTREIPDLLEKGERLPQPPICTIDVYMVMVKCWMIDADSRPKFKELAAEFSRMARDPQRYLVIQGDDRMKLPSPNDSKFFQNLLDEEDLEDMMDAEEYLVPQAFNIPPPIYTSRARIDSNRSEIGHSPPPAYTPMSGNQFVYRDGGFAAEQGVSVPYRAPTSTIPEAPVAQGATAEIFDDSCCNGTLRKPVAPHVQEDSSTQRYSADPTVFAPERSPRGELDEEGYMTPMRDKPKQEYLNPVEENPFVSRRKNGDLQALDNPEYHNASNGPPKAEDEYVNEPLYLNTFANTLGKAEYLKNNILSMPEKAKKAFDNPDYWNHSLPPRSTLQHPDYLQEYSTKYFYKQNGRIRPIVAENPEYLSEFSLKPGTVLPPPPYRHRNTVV

HCT-116 = assay: Antiproliferative activity against human HCT-116 cells assessed as cell growth inhibition incubated for 72 hrs by celltiter-glo luminescent cell viability assay; assay type: functional
[7] = target: T2, Tyrosine-protein kinase Blk (Homo sapiens, UniProt P51451); assay: Inhibition of BLK in goat anti-human IgM antibody stimulated human Ramos cells assessed as BLK autophosphorylation at Tyr 389 residue at 0.3 uM preincubated for 1 hr followed by compound washout for 2 hrs and antibody stimulation by Western blot analysis; assay type: cell-based
Target sequence in this assay (P51451 2-505 limits assumed): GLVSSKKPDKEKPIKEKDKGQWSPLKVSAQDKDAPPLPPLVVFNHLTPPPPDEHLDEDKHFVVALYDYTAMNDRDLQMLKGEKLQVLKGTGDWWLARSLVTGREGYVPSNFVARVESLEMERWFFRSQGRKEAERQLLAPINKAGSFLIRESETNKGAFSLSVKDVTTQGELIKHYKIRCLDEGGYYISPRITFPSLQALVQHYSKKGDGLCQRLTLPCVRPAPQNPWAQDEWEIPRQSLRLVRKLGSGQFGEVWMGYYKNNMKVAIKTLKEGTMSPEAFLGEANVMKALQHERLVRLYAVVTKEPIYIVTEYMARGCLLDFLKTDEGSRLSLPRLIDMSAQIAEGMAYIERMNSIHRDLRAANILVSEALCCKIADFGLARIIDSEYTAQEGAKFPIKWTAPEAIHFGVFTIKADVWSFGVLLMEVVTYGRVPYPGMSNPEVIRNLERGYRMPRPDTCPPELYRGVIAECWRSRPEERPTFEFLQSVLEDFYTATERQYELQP

[8] = target: T1, Tyrosine-protein kinase BTK; assay: Inhibition of BTK (unknown origin) at 0.3 uM relative to control
[9] = target: Epidermal growth factor receptor (Homo sapiens) (UniProt P00533); assay: Inhibition of EGFR (unknown origin) at 0.3 uM relative to control
MDA-MB-453 = assay: Antiproliferative activity against human MDA-MB-453 cells assessed as cell growth inhibition incubated for 72 hrs by celltiter-glo luminescent cell viability assay; assay type: functional
DOHH-2 [10] = assay: Antiproliferative activity against human DOHH-2 cells assessed as cell growth inhibition incubated for 72 hrs by celltiter-glo luminescent cell viability assay; assay type: functional
[11] = target: T2, Tyrosine-protein kinase Blk; assay: Irreversible inhibition of wild type N-terminal GST tagged BLK (unknown origin) (1 to 505 residues) expressed in sf21 insect cell at 3 uM incubated for 4 hrs and measured after 48 hrs dialysis
Target sequence in this assay (P51451 2-505 limits assumed): as above

SU-DHL10 = assay: Antiproliferative activity against human SU-DHL-10 cells assessed as cell growth inhibition incubated for 72 hrs by celltiter-glo luminescent cell viability assay; assay type: functional
[12] = Downregulation of CDK2 expression in human SU-DHL-6 cells at 0.3 uM preincubated for 1 hr followed by compound washout for 11 hrs and further incubated for 1 hr with compound followed by second washout for 11hrs by Western blot analysis; assay type: functional; settings: time 2 hrs
A549 = assay: Antiproliferative activity against human A549 cells assessed as cell growth inhibition incubated for 72 hrs by celltiter-glo luminescent cell viability assay; assay type: functional
A-375 = assay: Antiproliferative activity against human A-375 cells assessed as cell growth inhibition incubated for 72 hrs by celltiter-glo luminescent cell viability assay; assay type: functional
[13] = target: T1, Tyrosine-protein kinase BTK; assay: Inhibition of BTK in goat anti-human IgM antibody stimulated human Ramos cells assessed as BTK autophosphorylation at […] residue preincubated for 1 hr followed by antibody stimulation by Western blot analysis; assay type: cell-based
SU-DHL-6 [14] = assay: Antiproliferative activity against human SU-DHL-6 cells assessed as cell growth inhibition incubated for 72 hrs by celltiter-glo luminescent cell viability assay; assay type: functional
SU-DHL-6 [15] = assay: Downregulation of CDK2 expression in human SU-DHL-6 cells at 0.1 to 0.3 uM incubated for 24 hrs by Western blot analysis; assay type: functional, cell-based; settings: dose 0.1-0.3 µM
OCI-Ly7 = assay: Antiproliferative activity against human OCILY7 cells assessed as cell growth inhibition incubated for 72 hrs by celltiter-glo luminescent cell viability assay; assay type: functional
Homo sapiens = organism: Homo sapiens; assay: Selectivity ratio, ratio of IC50 for inhibition of BTK (unknown origin) to IC50 for inhibition of BLK (unknown origin)
[16] = Antiproliferative activity against HEK293 cells assessed as cell growth inhibition incubated for 72 hrs by celltiter-glo luminescent cell viability assay; assay type: toxicity, cell-based; settings: human
[17] = target: Tyrosine-protein kinase Tec (Homo sapiens) (UniProt P42680); assay: Inhibition of TEC (unknown origin) at 0.3 uM relative to control
Chain of Tyrosine-protein kinase Tec (Homo sapiens) (P42680 whole entry): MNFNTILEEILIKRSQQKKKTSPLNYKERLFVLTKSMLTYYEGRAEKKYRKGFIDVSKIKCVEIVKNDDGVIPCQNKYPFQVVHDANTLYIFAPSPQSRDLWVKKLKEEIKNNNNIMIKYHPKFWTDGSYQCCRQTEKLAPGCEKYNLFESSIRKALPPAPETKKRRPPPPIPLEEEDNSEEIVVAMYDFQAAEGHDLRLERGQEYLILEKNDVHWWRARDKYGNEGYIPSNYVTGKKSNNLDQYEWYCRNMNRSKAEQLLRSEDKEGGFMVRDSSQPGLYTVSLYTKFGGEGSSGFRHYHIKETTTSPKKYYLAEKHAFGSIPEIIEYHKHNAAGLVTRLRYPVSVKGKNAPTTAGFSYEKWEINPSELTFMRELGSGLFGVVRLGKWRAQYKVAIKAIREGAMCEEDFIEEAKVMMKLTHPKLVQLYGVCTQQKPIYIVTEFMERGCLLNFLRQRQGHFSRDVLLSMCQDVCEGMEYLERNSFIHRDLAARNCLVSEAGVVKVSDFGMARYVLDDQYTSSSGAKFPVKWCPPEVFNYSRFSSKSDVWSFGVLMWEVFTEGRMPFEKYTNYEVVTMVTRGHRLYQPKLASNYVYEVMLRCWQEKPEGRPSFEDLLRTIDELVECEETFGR

[18] = Antiproliferative activity against human HBL1 cells assessed as cell growth inhibition incubated for 72 hrs by celltiter-glo luminescent cell viability assay; assay type: functional
Jurkat = assay: Antiproliferative activity against human Jurkat cells assessed as cell growth inhibition incubated for 72 hrs by celltiter-glo luminescent cell viability assay; assay type: functional
SU-DHL-6 [19] = assay: Downregulation of CDK2 expression in human SU-DHL-6 cells at 0.3 uM incubated for 24 hrs by Western blot analysis; assay type: functional, cell-based
[20] = target: T1, Tyrosine-protein kinase BTK; assay: Inhibition of BTK in goat anti-human IgM antibody stimulated human Ramos cells assessed as PLCgamma2 phosphorylation preincubated for 1 hr followed by antibody stimulation by Western blot analysis; assay type: cell-based
TMD8 = assay: Antiproliferative activity against human TMD8 cells assessed as cell growth inhibition incubated for 72 hrs by celltiter-glo luminescent cell viability assay; assay type: functional
[21] = target: Tyrosine-protein kinase ITK/TSK (Homo sapiens) (UniProt Q08881); assay: Inhibition of ITK (unknown origin) at 0.3 uM relative to control
[22] = target: Receptor tyrosine-protein kinase erbB-2 (Homo sapiens) (UniProt P04626); assay: Inhibition of HER2 (unknown origin) at 0.3 uM relative to control
[23] = target: T2, Tyrosine-protein kinase Blk; assay: Inhibition of BLK (unknown origin) at 0.3 uM relative to control
Target sequence in this assay (P51451 2-505 limits assumed): as the sequence (P51451 2-505 limits assumed) above

[24] = target: T2, Tyrosine-protein kinase Blk; assay: Inhibition of wild type N-terminal GST tagged BLK (unknown origin) (1 to 505 residues) expressed in sf21 insect cell using TK as substrate incubated for 50 mins in presence of ATP by HTRF assay
Target sequence in this assay (P51451 whole entry): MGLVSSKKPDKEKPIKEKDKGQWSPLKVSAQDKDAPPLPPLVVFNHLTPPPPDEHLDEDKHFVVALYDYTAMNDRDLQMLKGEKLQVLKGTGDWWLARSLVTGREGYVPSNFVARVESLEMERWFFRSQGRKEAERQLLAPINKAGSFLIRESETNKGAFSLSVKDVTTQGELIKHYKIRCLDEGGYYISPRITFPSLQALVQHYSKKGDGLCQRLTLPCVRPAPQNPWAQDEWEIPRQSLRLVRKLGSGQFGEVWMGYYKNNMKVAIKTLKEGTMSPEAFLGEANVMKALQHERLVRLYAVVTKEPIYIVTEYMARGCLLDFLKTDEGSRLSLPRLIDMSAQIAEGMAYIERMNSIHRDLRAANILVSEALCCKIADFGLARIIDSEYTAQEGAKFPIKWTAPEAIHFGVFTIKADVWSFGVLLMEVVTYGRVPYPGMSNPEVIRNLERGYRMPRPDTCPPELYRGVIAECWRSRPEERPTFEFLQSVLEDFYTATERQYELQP

[25] = target: T2, Tyrosine-protein kinase Blk; assay: Inhibition of (S)-3-(3-(5-acrylamido-6-(3-(5-(2-methyl-5-(3-(trifluoromethyl)benzamido)benzamido)pyrimidin-2-ylamino)phenylamino)-6-oxohexylamino)-3-oxopropyl)-5,5-difluoro-7,9-dimethyl-5H-dipyrrolo[1,2-c:1',2'-f][1,3,2]diazaborinin-4-ium-5-uide binding to BLK in human NAMALVA cells preincubated for 1 hr followed by compound washout for three times and treated with probe for 1 hr by competitive labeling assay; assay type: cell-based
Target sequence in this assay (P51451 whole entry): as above

[26] = target: Mitogen-activated protein kinase 14 (Homo sapiens) (UniProt Q16539); assay: Inhibition of p38alpha (unknown origin) relative to control; settings: concentration not given here
[27] = target: Tyrosine-protein kinase Lyn (Homo sapiens) (UniProt P07948); assay: Inhibition of LYN (unknown origin) relative to control; settings: concentration not given here
Chain of Tyrosine-protein kinase Lyn (Homo sapiens) (P07948 2-512 limits assumed): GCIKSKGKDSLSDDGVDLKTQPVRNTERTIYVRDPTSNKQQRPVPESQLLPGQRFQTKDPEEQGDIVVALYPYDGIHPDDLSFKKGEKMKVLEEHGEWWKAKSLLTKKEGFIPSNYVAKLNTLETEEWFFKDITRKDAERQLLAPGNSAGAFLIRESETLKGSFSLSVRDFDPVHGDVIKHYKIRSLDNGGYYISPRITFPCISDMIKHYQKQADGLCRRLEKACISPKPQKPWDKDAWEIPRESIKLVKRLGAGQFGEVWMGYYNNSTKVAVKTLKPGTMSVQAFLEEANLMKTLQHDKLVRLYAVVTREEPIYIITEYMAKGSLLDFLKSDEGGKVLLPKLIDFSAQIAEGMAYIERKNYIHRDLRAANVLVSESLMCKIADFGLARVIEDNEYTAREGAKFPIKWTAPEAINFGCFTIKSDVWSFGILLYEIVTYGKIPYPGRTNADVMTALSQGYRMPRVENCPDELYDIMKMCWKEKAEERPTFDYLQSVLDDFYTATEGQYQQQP

[28] = target: Tyrosine-protein kinase CSK (Homo sapiens) (UniProt P41240); assay: Inhibition of CSK (unknown origin) relative to control; settings: concentration not given here
Chain of Tyrosine-protein kinase CSK (Homo sapiens) (P41240 2-450 limits assumed): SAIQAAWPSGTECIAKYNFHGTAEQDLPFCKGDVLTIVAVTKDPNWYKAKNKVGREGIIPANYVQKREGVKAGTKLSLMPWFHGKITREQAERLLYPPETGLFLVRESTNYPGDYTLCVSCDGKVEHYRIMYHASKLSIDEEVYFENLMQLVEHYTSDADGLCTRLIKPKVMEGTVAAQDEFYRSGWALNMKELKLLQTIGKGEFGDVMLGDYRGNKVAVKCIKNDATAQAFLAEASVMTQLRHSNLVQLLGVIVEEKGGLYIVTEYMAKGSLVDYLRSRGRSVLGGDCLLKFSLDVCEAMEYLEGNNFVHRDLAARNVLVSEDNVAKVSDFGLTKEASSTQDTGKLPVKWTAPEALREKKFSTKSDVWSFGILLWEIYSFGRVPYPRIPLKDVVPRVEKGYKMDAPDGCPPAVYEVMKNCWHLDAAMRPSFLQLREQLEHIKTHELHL

HEK293 = assay: Inhibition of (S)-3-(3-(5-acrylamido-6-(3-(5-(2-methyl-5-(3-(trifluoromethyl)benzamido)benzamido)pyrimidin-2-ylamino)phenylamino)-6-oxohexylamino)-3-oxopropyl)-5,5-difluoro-7,9-dimethyl-5H-dipyrrolo[1,2-c:1',2'-f][1,3,2]diazaborinin-4-ium-5-uide binding to BLK C319A mutant over expressed in HEK293 cells preincubated for 1 hr followed by compound washout for three times and treated with probe for 1 hr by competitive labeling assay; assay type: cell-based; settings: Homo sapiens
[29] = target: T2, Tyrosine-protein kinase Blk; assay: Inhibition of (S)-3-(3-(5-acrylamido-6-(3-(5-(2-methyl-5-(3-(trifluoromethyl)benzamido)benzamido)pyrimidin-2-ylamino)phenylamino)-6-oxohexylamino)-3-oxopropyl)-5,5-difluoro-7,9-dimethyl-5H-dipyrrolo[1,2-c:1',2'-f][1,3,2]diazaborinin-4-ium-5-uide binding to wild type BLK over expressed in HEK293 cells preincubated for 1 hr followed by compound washout for three times and treated with probe for 1 hr by competitive labeling assay; assay type: cell-based
Target sequence in this assay (P51451 2-505 limits assumed): as the sequence (P51451 2-505 limits assumed) above

[30] = target: T1, Tyrosine-protein kinase BTK; assay: Time dependent inhibition of wild type N-terminal GST tagged BTK (unknown origin) (2 to 659 residues) expressed in sf21 insect cell using TK as substrate in presence of ATP by HTRF assay; settings: time 50.0 min, TDE = time-dependent effect
[31] = target: T1, Tyrosine-protein kinase BTK; assay: Inhibition of (S)-3-(3-(5-acrylamido-6-(3-(5-(2-methyl-5-(3-(trifluoromethyl)benzamido)benzamido)pyrimidin-2-ylamino)phenylamino)-6-oxohexylamino)-3-oxopropyl)-5,5-difluoro-7,9-dimethyl-5H-dipyrrolo[1,2-c:1',2'-f][1,3,2]diazaborinin-4-ium-5-uide binding to BTK in human NAMALVA cells preincubated for 1 hr followed by compound washout for three times and treated with probe for 1 hr by competitive labeling assay; assay type: cell-based

## Cc1ccc(NC(=O)c2ccc3cnccc3c2)cc1C(=O)Nc1cnc(Nc2cccc(N)c2)nc1
[1]
  IC50: 407 nM

## Cc1ccc(NC(=O)c2cccc(-c3ccc(F)cc3)c2)cc1C(=O)Nc1cnc(Nc2cccc(N)c2)nc1
[1]
  IC50: 694 nM

## Cc1ccc(NC(=O)c2cccc(C(F)(F)F)c2)cc1C(=O)Nc1cnc(Nc2cccc(N)c2)nc1
[1]
  IC50: 42.1 nM

## Cc1ccc(NC(=O)c2ccc3cnccc3c2)cc1C(=O)Nc1cnc(Nc2cccc(NC3CCN(C(=O)CF)CC3)c2)nc1
[1]
  IC50: 63.4 nM

## Cc1ccc(NC(=O)c2cccc(-c3ccc(F)nc3)c2)cc1C(=O)Nc1cnc(Nc2cccc(N)c2)nc1
[1]
  IC50: 507 nM

## Cc1ccc(NC(=O)c2ccc3cnccc3c2)cc1C(=O)Nc1cnc(Nc2cccc(NC3CCN(C(=O)/C=C/CN(C)C)CC3)c2)nc1
[2]
  inhibition: 83%
[3]
  GI50 at 72 h: > 30000 nM
[1]
  IC50: 202 nM
Pfeiffer
  GI50: 2180 nM
A-431
  GI50: > 30000 nM
[4]
  inhibition: 99%
MOLT-4
  GI50: 18800 nM
DOHH-2 [5]
  Activity: Active
[6]
  inhibition: 94%
HCT-116
  GI50: 8100 nM
[7]
  inhibition: Active
[8]
  inhibition: 100%
[9]
  inhibition: 97%
MDA-MB-453
  GI50: > 30000 nM
DOHH-2 [10]
  GI50: 16 nM
[11]
  inhibition: Active
SU-DHL10
  GI50: 560 nM
[12]
  Activity: 55%
A549
  GI50: > 30000 nM
A-375
  GI50: > 30000 nM
[13]
  EC50: > 1000 nM
SU-DHL-6 [14]
  GI50: 130 nM
SU-DHL-6 [15]
  Activity: Active
OCI-Ly7
  GI50: 20 nM
Homo sapiens
  Ratio IC50: 34.2
[16]
  GI50 at 72 h: > 30000 nM
[17]
  inhibition: 19%
[18]
  GI50: 1340 nM
Jurkat
  GI50: 10900 nM
SU-DHL-6 [19]
  Activity: Active
[20]
  EC50: > 1000 nM
TMD8
  GI50: 64 nM
[21]
  inhibition: 5%
[22]
  inhibition: 19%
[23]
  inhibition: 101%
[24]
  IC50: 5.9 nM
[25]
  IC50: 12 nM

## Cc1ccc(NC(=O)c2ccc3ncccc3c2)cc1C(=O)Nc1cnc(Nc2cccc(N)c2)nc1
[1]
  IC50: 410 nM

## Cc1ccc(NC(=O)c2ccc3cc(O)ccc3c2)cc1C(=O)Nc1cnc(Nc2cccc(N)c2)nc1
[1]
  IC50: 212 nM

## C=CC(=O)N1CCC(Nc2cccc(Nc3ncc(NC(=O)c4cc(NC(=O)c5ccc6cnccc6c5)ccc4C)cn3)c2)CC1
[26]
  inhibition: > 80%
[1]
  IC50: 58 nM
[27]
  inhibition: > 80%
Homo sapiens
  Ratio IC50: 6.6
[28]
  inhibition: > 80%
[24]
  IC50: 8.8 nM
[25]
  IC50: 5.5 nM

## C=CC(=O)Nc1cccc(Nc2ncc(NC(=O)c3cc(NC(=O)c4cccc(C(F)(F)F)c4)ccc3C)cn2)c1
HEK293
  inhibition: Active
[29]
  inhibition: Active
[24]
  IC50: 18.8 nM
[25]
  IC50: 15 nM

## Cc1ccc(NC(=O)c2ccc3cc4ccccc4cc3c2)cc1C(=O)Nc1cnc(Nc2cccc(N)c2)nc1
[1]
  IC50: 319 nM

## Cc1ccc(NC(=O)c2ccc3cc(Br)ccc3c2)cc1C(=O)Nc1cnc(Nc2cccc(N)c2)nc1
[1]
  IC50: 145 nM

## COc1ccc2cc(C(=O)Nc3ccc(C)c(C(=O)Nc4cnc(Nc5cccc(N)c5)nc4)c3)ccc2c1
[1]
  IC50: 63.8 nM

## C=CC(=O)Nc1cccc(Nc2ncc(NC(=O)c3cc(NC(=O)c4ccc5cnccc5c4)ccc3C)cn2)c1
[1]
  IC50: 56 nM
[30]
  inhibition: Tde
[31]
  IC50: 110 nM

## Cc1ccc(NC(=O)c2cccc(-c3cccnc3)c2)cc1C(=O)Nc1cnc(Nc2cccc(N)c2)nc1
[1]
  IC50: 227 nM

## Cc1ccc(NC(=O)CC23CC4CC(CC(C4)C2)C3)cc1C(=O)Nc1cnc(Nc2cccc(N)c2)nc1
[1]
  IC50: 338 nM

## Cc1ccc(NC(=O)c2cccc(-c3ccco3)c2)cc1C(=O)Nc1cnc(Nc2cccc(N)c2)nc1
[1]
  IC50: 360 nM

## Cc1ccc(NC(=O)c2ccc(-c3ccccc3)cc2)cc1C(=O)Nc1cnc(Nc2cccc(N)c2)nc1
[1]
  IC50: 255 nM

## Cc1ccc(NC(=O)OCc2ccccc2)cc1C(=O)Nc1cnc(Nc2cccc(N)c2)nc1
[1]
  IC50: 444 nM

## Cc1ccc(NC(=O)c2cccc(-c3ccccc3)c2)cc1C(=O)Nc1cnc(Nc2cccc(N)c2)nc1
[1]
  IC50: 660 nM

## Cc1ccc(NC(=O)c2ccc3ccccc3c2)cc1C(=O)Nc1cnc(Nc2cccc(N)c2)nc1
[1]
  IC50: 78.8 nM

## C=CC(=O)NCCC(=O)Nc1cccc(Nc2ncc(NC(=O)c3cc(NC(=O)c4ccc5cnccc5c4)ccc3C)cn2)c1
[1]
  IC50: 388 nM
